Experimental data: patent US8263628B2, “Fluorine-containing organosulfur compound and pesticidal composition thereof” (Sumitomo Chemical Company, Limited., priority 2007, dated 2012)

Tests used:
[1] = system: Musca domestica; assay: Filter paper/sucrose bait test against female Musca domestica; type: in vivo; conditions: 500 ppm test solution, 0.7 mL on filter paper; 10 female Musca domestica; after 24 hours; read-out: mortality rate
Description: Each of the formulations of the present compounds (1), (2), (3), (4), (5), (6), (8), (9), (10), (12), (14) and (15) obtained in Formulation Example 20 was diluted so that the concentration of the present compound was 500 ppm to prepare a test solution.
On the bottom of a polyethylene cup having a diameter of 5.5 cm, a filter paper having the same size was laid and 0.7 mL of the test solution was dropped on the filter paper, and then 30 mg of a sucrose as a bait was uniformly placed. In the polyethylene cup, 10 female Musca domesticas were released and the cup was lidded. After 24 hours, life and death of Musca domesticas were examined and the mortality rate was determined.

[2] = system: Culex pipiens pallens; assay: Water treatment test against Culex pipiens pallens last instar larvae; type: in vivo; conditions: 24 h; active ingredient 3.5 ppm in water; 20 Culex pipiens pallens last instar larvae; after one day; read-out: mortality rate
Description: Each of the formulations of the present compounds (1), (3), (4), (6), (8), (9), (10), (14) and (15) obtained in Formulation Example 20 was diluted so that the concentration of the present compound was 500 ppm to prepare a test solution.
To 100 mL of ion-exchange water was added 0.7 mL of the above test solution (concentration of an active ingredient: 3.5 ppm). In the solution, 20 Culex pipiens pallens last instar larvae were released. After one day, life and death of Culex pipiens last instar larvae were examined and the mortality rate was determined.

**Q.** With FC(F)(F)CCSCc1ccc(C(F)(F)F)nc1 [present compound (1), 2-trifluoromethyl-5-(3,3,3-trifluoropropylsulfanylmethyl)pyridine] as the compound, how does the mortality at 500 ppm [1] read?
**A.** ≥ 90%

**Q.** And the mortality at 3.5 ppm [2]?
**A.** ≥ 95%

**Q.** For O=S(=O)(CCC(F)(F)F)Cc1ccc(C(F)(F)F)nc1 [present compound (2), 2-trifluoromethyl-5-(3,3,3-trifluoropropanesulfonylmethyl)pyridine], which mortality at 500 ppm [1] is on record?
**A.** ≥ 90%

**Q.** For CC(SCCC(F)(F)F)c1ccc(C(F)(F)F)nc1 (stereo not drawn) [present compound (3), 2-trifluoromethyl-5-[1-(3,3,3-trifluoropropylsulfanyl)ethyl]pyridine], which mortality at 500 ppm [1] is on record?
**A.** ≥ 90%

**Q.** And the mortality at 3.5 ppm [2]?
**A.** ≥ 95%

**Q.** Which results are given for CC(c1ccc(C(F)(F)F)nc1)S(=O)(=O)CCC(F)(F)F (stereo not drawn) [present compound (4), 2-trifluoromethyl-5-[1-(3,3,3-trifluoropropanesulfonyl)ethyl]pyridine]?
**A.** mortality at 500 ppm [1]: ≥ 90%; mortality at 3.5 ppm [2]: ≥ 95%

**Q.** FC(F)(F)CCSCc1ccc(Cl)cn1 [present compound (5), 5-chloro-2-(3,3,3-trifluoropropylsulfanylmethyl)pyridine] was tested. Which mortality at 500 ppm [1] did it give?
**A.** ≥ 90%

**Q.** For CC(SCCC(F)(F)F)c1ccc(Cl)cn1 (stereo not drawn) [present compound (6), 5-chloro-2-[1-(3,3,3-trifluoropropylsulfanyl)ethyl]pyridine], which mortality at 500 ppm [1] is on record?
**A.** ≥ 90%

**Q.** What about the mortality at 3.5 ppm [2] of the same compound?
**A.** ≥ 95%

**Q.** What does the source list for CC(SCCC(F)(F)F)c1ccc(C(F)(F)F)cn1 (stereo not drawn) [present compound (8), 5-trifluoromethyl-2-[1-(3,3,3-trifluoropropylsulfanyl)ethyl]pyridine]?
**A.** mortality at 500 ppm [1]: ≥ 90%; mortality at 3.5 ppm [2]: ≥ 95%

**Q.** What does the source list for CC(c1ccc(C(F)(F)F)cn1)S(=O)(=O)CCC(F)(F)F (stereo not drawn) [present compound (9), 5-trifluoromethyl-2-[1-(3,3,3-trifluoropropanesulfonyl)ethyl]pyridine]?
**A.** mortality at 500 ppm [1]: ≥ 90%; mortality at 3.5 ppm [2]: ≥ 95%

**Q.** For FC(F)(F)CCSCc1cnc(C(F)(F)F)nc1 [present compound (10), 2-trifluoromethyl-5-(3,3,3-trifluoropropylsulfanylmethyl)pyrimidine], which mortality at 500 ppm [1] is on record?
**A.** ≥ 90%

**Q.** What about the mortality at 3.5 ppm [2] of the same compound?
**A.** ≥ 95%

**Q.** How did the mortality at 500 ppm [1] turn out when COc1ncc(CSCCC(F)(F)F)cn1 [present compound (12), 2-methoxy-5-(3,3,3-trifluoropropylsulfanylmethyl)pyrimidine] was run?
**A.** ≥ 90%

**Q.** Which mortality at 500 ppm [1] does the source give for COC(=O)C(Cl)(c1ccc(C(F)(F)F)cn1)S(=O)(=O)CCC(F)(F)F (stereo not drawn) [present compound (14), methyl 2-chloro-2-(5-trifluoromethylpyridin-2-yl)-2-(3,3,3-trifluoropropylsulfonyl)acetate] here?
**A.** ≥ 90%

**Q.** What about the mortality at 3.5 ppm [2] of the same compound?
**A.** ≥ 95%

**Q.** Which results are given for O=S(=O)(CCC(F)(F)F)C(Cl)c1ccc(C(F)(F)F)cn1 (stereo not drawn) [present compound (15), 2-[chloro-(3,3,3-trifluoropropanesulfonyl)methyl]-5-trifluoromethylpyridine]?
**A.** mortality at 500 ppm [1]: ≥ 90%; mortality at 3.5 ppm [2]: ≥ 95%
